Laboratory results from patent publication US12161648B2, “Covalent targeting of E3 ligases” (The Regents of the University of California, priority 2018, dated 2024).

What was measured:
231MFP cells = test: Survival and proliferation assay (Hoechst stain), 231MFP; type: cell-based, human; conditions: 48 h
Procedure: Survival and Proliferation Assays. Cell survival and proliferation assays were performed as previously described using Hoechst 33342 dye (Invitrogen) according to manufacturer's protocol and as previously described^62. 231MFP cells were seeded into 96-well plates (40,000 for survival and 20,000 for proliferation) in a volume of 150 μl and allowed to adhere overnight. Cells were treated with an additional 50 μL of media containing 1:250 dilution of 1000× compound stock in DMSO. After the appropriate incubation period, media was removed from each well and 100 μl of staining solution containing 10% formalin and Hoechst 33342 dye was added to each well and incubated for 15 min in the dark at room temperature. After incubation, staining solution was removed, and wells were washed with PBS before imaging.
Survival and Proliferation Assays. Cell survival and proliferation assays were performed as previously described using Hoechst 33342 dye (Invitrogen) according to manufacturer's protocol and as previously described^14. 231MFP cells were seeded into 96-well plates (40,000 for survival and 20,000 for proliferation) in a volume of 150 μl and allowed to adhere overnight. Cells were treated with an additional 50 μL of media containing 1:250 dilution of 1000× compound stock in DMSO. […]

RNF114 [1] = test: RNF114 ubiquitination assay; type: biochemical, human; conditions: 50 μM, wild-type or C8A mutant RNF114
Procedure: RNF114 ubiquitination assay. Recombinant Myc-Flag-RNF114 proteins were either purified from HEK292T cells as described above or purchased from Origene (Origene Technologies Inc., TP309752). For in vitro auto-ubiquitination assay, 0.2 μg of RNF114 in 25 μL of TBS was pre-incubated with DMSO vehicle or the covalently-acting compound for 30 min at room temperature. Subsequently, 0.1 μg of UBE1 (Boston Biochem. Inc, E-305), 0.1 μg UBE2D1 (Boston Bichem. Inc, e2-615), 5 μg of Flag-ubiquitin (Boston Bichem. Inc, u-120) in a total volume of 25 μL Tris buffer containing 2 mM ATP were added to achieve a final volume of 50 μL. The mixture was incubated at 37° C. with agitation for 1.5 h. 20 μL of Laemmli's buffer was added to quench the reaction and proteins were analyzed by western blot assay.

RNF114 [2] = target: T1, RNF114 (Homo sapiens, UniProt Q9Y508); test: Gel-based ABPP, competition against JNS27 labeling of pure RNF114; type: binding; conditions: covalent ligands 50 μM
T1 construct: Myc; FLAG; purchased Origene
Procedure: (§1) Gel-Based ABPP. Gel-based ABPP methods were performed as previously described^34,62,63,67. Recombinant pure human proteins were purchased from Origene. […] CuAAC was performed to append rhodamine-azide (1 μM final concentration) onto alkyne probe-labeled proteins. Samples were then diluted with 20 μL of 4× reducing Laemmli SDS sample loading buffer (Alfa Aesar) and heated at 90° C. for 5 min. The samples were separated on precast 4-20% TGX gels (Bio-Rad Laboratories, Inc.). Prior to scanning by ChemiDoc MP (Bio-Rad Laboratories, Inc), gels were fixed in a solution of 10% acetic acid, 30% ethanol for 2 hrs. Inhibition of target labeling was assessed by densitometry using ImageJ.
as §1, with “described^14.” for “described^34,62,63,67.”

231MFP tumor xenograft = 231MFP tumor xenograft growth in SCID mice; type: in vivo; conditions: 50 mg/kg ip, once per day, from day 17
Procedure: Tumor xenograft studies. Human tumor xenografts were established by transplanting cancer cells ectopically into the flank of female C.B17 severe combined immunodeficiency (SCID) mice (Taconic Farms) as previously described^66,69 In brief, cells were washed with PBS, trypsinized, and harvested in serum-containing medium. Harvested cells were washed in serum-free media and resuspended in serum-free media at a concentration of 2.0×10^4 cells/μl, and 100 μl was injected subcutaneously into the flank of each mouse. Tumors were measured with calipers. Animal experiments were conducted in accordance with the guidelines of the Institutional Animal Care and Use Committees of the University of California, Berkeley.

[3] = test system: 231MFP breast cancer cell proteomes; test: isoTOP-ABPP proteome-wide selectivity in 231MFP proteomes in vitro; type: binding, human; conditions: 50 μM
RNF4 [4] = target: T2, RNF4 (Homo sapiens, UniProt P78317); test: Gel-based ABPP, competition against IA-rhodamine labeling of pure RNF4; type: binding
T2 construct: purchased Boston Biochem K-220
T2 sequence (P78317 1-190): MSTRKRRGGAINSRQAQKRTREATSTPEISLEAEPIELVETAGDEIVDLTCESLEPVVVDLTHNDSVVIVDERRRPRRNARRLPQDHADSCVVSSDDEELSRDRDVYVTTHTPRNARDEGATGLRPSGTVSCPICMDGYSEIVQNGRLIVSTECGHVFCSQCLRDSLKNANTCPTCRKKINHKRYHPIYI
Procedure: Gel-Based ABPP. Gel-based ABPP methods were performed as previously described^5,6,25,26. Pure recombinant human RNF4 was purchased from Boston Biochem (K-220). RNF4 (0.25 μg) was diluted into 50 μL of PBS and 1p L of either DMSO (vehicle) or covalently acting small molecule to achieve the desired concentration. After 30 minutes at room temperature, the samples were treated with 250 nM IA-Rhodamine (Setareh Biotech, 6222, prepared in anhydrous DMSO) for 1 h at room temperature. Samples were then diluted with 20 μL of 4× reducing Laemmli SDS sample loading buffer (Alfa Aesar) and heated at 90° C. for 5 min. The samples were separated on precast 4-20% Criterion TGX gels (Bio-Rad Laboratories, Inc.). Fluorescent imaging was performed on a ChemiDoc MP (Bio-Rad Laboratories, Inc) inhibition of target labeling was assessed by densitometry using ImageJ.

RNF4 [5] = target: T2, RNF4; test: LC-MS/MS analysis of covalent adduct on RNF4; type: binding; conditions: 50 μM, 30 min, tryptic digests
Procedure: LC-MS/MS analysis of RNF4. Purified RNF4 (10 μg) was diluted into 80 μL of PBS and treated for 30 min with DMSO or compound (50 μM). […] The samples were precipitated by additional of 20 μL of 100% (w/v) TCA and combined pairwise before cooling to −80 C for one hour.

RNF4 [6] = target: T2, RNF4; test: RNF4 in vitro auto-ubiquitination assay; type: biochemical; conditions: 100 μM pre-incubation
Procedure: RNF4 ubiquitination assay. […] Subsequently, UBE1 (50 nM, Boston Biochem, E-305), UBE2D1 (400 nM Boston Bichem, E2-615), Flag-ubiquitin (4000 nM, Boston Biochem, U-120) and ATP (200 μM) were added in ubiquitination assay buffer bring the total volume to 30 μL. The mixture was incubated at RT for 30 min before quenching with 10 μL of 4× Laemmli's buffer. Ubiquitination activity was measured by separation on an SDS-PAGE gel and western blotting as previously described.

RNF114 [7] = target: T1, RNF114; test: Gel-based ABPP, nimbolide probe labeling of pure RNF114; type: binding; conditions: probe 10 μM, 1 h

T1 sequence (Q9Y508 whole entry): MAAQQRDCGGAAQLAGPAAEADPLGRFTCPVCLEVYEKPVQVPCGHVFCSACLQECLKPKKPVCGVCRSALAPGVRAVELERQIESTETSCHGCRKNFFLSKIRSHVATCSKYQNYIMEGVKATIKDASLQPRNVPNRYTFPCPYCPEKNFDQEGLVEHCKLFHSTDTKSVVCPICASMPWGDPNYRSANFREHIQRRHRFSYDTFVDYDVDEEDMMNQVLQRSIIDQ

## C=CC(=O)NCc1ccc(C(=O)Nc2sc(-c3ccccc3)c(C)c2C(=O)N2CCCCC2)cc1 [EN62]
231MFP cells
  231MFP breast cancer cell survival: impaired
RNF114 [1]
  RNF114 autoubiquitination activity: inhibited
RNF114 [2]
  hit from covalent ligand screen against RNF114: promising hit
231MFP tumor xenograft
  231MFP tumor xenograft growth: attenuated
[3]
  proteome-wide selectivity: exhibited proteome-wide selectivity

## O=C(CCl)Nc1ccc(Oc2ccccc2)cc1 [TRH 1-23]
RNF4 [4]
  potency to be useful as an RNF4 recruiter: did not show sufficient potency
RNF4 [4]; confirmation of screening hits
  inhibition of IA-rhodamine labeling of RNF4: reproducible and dose-responsive inhibition
RNF4 [4]; covalent ligands 50 μM, 30 min pre-incubation, IA-rhodamine 250 nM 1 h
  hits from covalent ligand screen against IA-rhodamine labeling of RNF4: potential hits
RNF4 [5]
  site-of-modification within RNF4: covalently modified either, but not both, of the two zinc-coordinating cysteines CI32 and CI35
RNF4 [6]
  RNF4 autoubiquitination activity: does not inhibit

## C#CCNC(=O)c1ccc(-c2occc2[C@@H]2C[C@H]3O[C@@H]4[C@@H]5OC(=O)[C@]6(C)C=CC(=O)[C@](C)([C@@H](CC(=O)OC)[C@]4(C)C3=C2C)[C@@H]56)cc1 [nimbolide probe]
RNF114 [7]
  probe labeling of pure RNF114: reacts with pure human RNF114
